The results in this text go back to ChEMBL document CHEMBL5236565, “Design, synthesis, and biological evaluation of novel 2'-methyl-2'-fluoro-6-methyl-7-alkynyl-7-deazapurine nucleoside analogs as anti-Zika virus agents” (Eur J Med Chem, 2022).

For assay [1], the system named is Zika virus. The assay can be described thus: Antiviral activity against ZIKV infected in human A549 cells at 50 uM by microtiter assay relative to control. It is filed as functional.
The subject of a further assay is A549. The assay can be described thus: Cytotoxicity against human A549 cells assessed as cell growth inhibition measured after 24 hrs by MTT assay. It is filed as functional.
Assay [2] has as its system Zika virus. The assay is described as follows: Antiviral activity against ZIKV ZG-01 infected in human A549 cells assessed as reduction in viral induced cytopathic effect by measuring reduction in PFU measured after 4 days by neutral red staining based plaque assay. It is filed as functional, organism-based. The settings on record: ZG-01, A549, 96 h; for EC90: time 4 day.

A further assay has as its target NS5 (Zika virus, UniProt A0A143MHK7). The assay can be described thus: Binding affinity to N-terminal His-tagged recombinant ZIKV ZG-01 RdRp (272 to 903 residues) expressed in Escherichia coli rosetta by surface plasmon resonance assay.

Sequence of NS5 (A0A143MHK7 whole entry, the tested form may be a part): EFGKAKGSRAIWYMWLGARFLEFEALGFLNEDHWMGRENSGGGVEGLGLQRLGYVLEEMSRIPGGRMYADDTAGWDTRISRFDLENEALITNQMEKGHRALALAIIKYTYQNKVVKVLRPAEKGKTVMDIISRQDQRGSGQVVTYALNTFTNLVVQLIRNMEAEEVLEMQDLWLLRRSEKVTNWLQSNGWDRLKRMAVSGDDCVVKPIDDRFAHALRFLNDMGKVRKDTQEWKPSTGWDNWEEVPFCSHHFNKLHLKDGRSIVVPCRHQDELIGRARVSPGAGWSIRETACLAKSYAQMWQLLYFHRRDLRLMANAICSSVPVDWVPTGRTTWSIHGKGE

Take `Cc1ncnc2c1c(C#CC(C)(C)C)cn2[C@@H]1O[C@H](CO)[C@@H](O)[C@@]1(C)F`: the Activity with Zika virus [1] amounted to 22.4%.
In the case of `Cc1ncnc2c1c(C#Cc1cccs1)cn2[C@@H]1O[C@H](CO)[C@@H](O)[C@@]1(C)F`, the CC50 in the assay with A549 was more than 50 µM. For the same compound, the Activity in the assay with Zika virus [1] was more than 90%. Moreover, in the assay with Zika virus [2], the concentration for a half-maximal effect (EC50) came out at 35.4 µM and the 90% effect concentration (EC90) was 50 µM.
For `Cc1ncnc2c1c(/C=C/c1ccccc1)cn2[C@@H]1O[C@H](CO)[C@@H](O)[C@@]1(C)F`, the Activity with Zika virus [1] is given as less than 10%.
Take `Cc1ncnc2c1c(-c1ccccc1)cn2[C@@H]1O[C@H](CO)[C@@H](O)[C@@]1(C)F`: in the assay with Zika virus [1], the Activity is listed as less than 10%.
With `Cc1ncnc2c1c(C#Cc1nccs1)cn2[C@@H]1O[C@H](CO)[C@@H](O)[C@@]1(C)F`, the Activity in the assay on Zika virus [1] was less than 10%.
In the assay on Zika virus [1], `Cc1ncnc2c1c(C#Cc1cccnc1)cn2[C@@H]1O[C@H](CO)[C@@H](O)[C@@]1(C)F` displayed an Activity of less than 10%.
`Cc1ncnc2c1c(C1CC1c1ccccc1)cn2[C@@H]1O[C@H](CO)[C@@H](O)[C@@]1(C)F` (some centres undefined) registered an Activity in the assay with Zika virus [1] of less than 10%.
In the case of `COc1cccc(C#Cc2cn([C@@H]3O[C@H](CO)[C@@H](O)[C@@]3(C)F)c3ncnc(C)c23)c1`, the 50% cytotoxic concentration (CC50) in the assay with A549 is more than 50 µM. The same compound displayed an Activity with Zika virus [1] of more than 90%. In the assay on Zika virus [2], the concentration for a half-maximal effect (EC50) was 14.8 µM and the concentration for an effect of 90% (EC90) amounted to 40.4 µM.
Turning to `Cc1ccc(C#Cc2cn([C@@H]3O[C@H](CO)[C@@H](O)[C@@]3(C)F)c3ncnc(C)c23)s1`, the Activity with Zika virus [1] is 43.9%.
With `Cc1ncnc2c1c(C#Cc1ccc(Br)cc1F)cn2[C@@H]1O[C@H](CO)[C@@H](O)[C@@]1(C)F`, in the assay on A549, the CC50 is more than 50 µM. Moreover, in the assay with Zika virus [2], the EC50 was found to be 3 µM and the concentration for an effect of 90% (EC90) was determined as 7.9 µM.
With `Cc1cccc(C#Cc2cn([C@@H]3O[C@H](CO)[C@@H](O)[C@@]3(C)F)c3ncnc(C)c23)c1`, the CC50 with A549 is more than 50 µM. In the assay on Zika virus [1], the Activity is reported as more than 90%. For the same compound, in the assay with Zika virus [2], the 50% effective concentration (EC50) was found to be 7.1 µM and the concentration for an effect of 90% (EC90) is 19.1 µM.
On to `Cc1ncnc2c1c(C#Cc1ncccn1)cn2[C@@H]1O[C@H](CO)[C@@H](O)[C@@]1(C)F`, for which, in the assay with Zika virus [1], the Activity is on record as less than 10%.
Turning to `COc1ccccc1C#Cc1cn([C@@H]2O[C@H](CO)[C@@H](O)[C@@]2(C)F)c2ncnc(C)c12`, in the assay on A549, the CC50 was more than 50 µM. The same compound returned an Activity in the assay on Zika virus [1] of more than 90%. In addition, in the assay on Zika virus [2], the EC50 amounted to 40.3 µM and the EC90 was more than 50 µM.
In the assay with Zika virus [1], `Cc1ncnc2c1c(C#CC1CC1)cn2[C@@H]1O[C@H](CO)[C@@H](O)[C@@]1(C)F` returned an Activity of less than 10%.
On to `Cc1ncnc2c1c(C#Cc1cccc(F)c1)cn2[C@@H]1O[C@H](CO)[C@@H](O)[C@@]1(C)F`, for which the Activity with Zika virus [1] is less than 10%.
As for `Cc1ncnc2c1c(C#Cc1ccccn1)cn2[C@@H]1O[C@H](CO)[C@@H](O)[C@@]1(C)F`, the Activity in the assay on Zika virus [1] is reported as 18.8%.
Consider `Cc1ncnc2c1c(C#Cc1ccccc1Br)cn2[C@@H]1O[C@H](CO)[C@@H](O)[C@@]1(C)F`, for which the half-maximal cytotoxic concentration (CC50) in the assay with A549 was more than 50 µM. The same compound gave an Activity in the assay with Zika virus [1] of more than 90%. For the same compound, in the assay with Zika virus [2], the concentration for a half-maximal effect (EC50) amounted to 9.6 µM and the EC90 was 19.7 µM.
With `Cc1cccc(C#Cc2cn([C@@H]3O[C@H](CO)[C@@H](O)[C@@]3(C)F)c3ncnc(C)c23)n1`, in the assay on Zika virus [1], the Activity was less than 10%.
With `Cc1ncnc2c1c(-n1cc(-c3ccccc3)nn1)cn2[C@@H]1O[C@H](CO)[C@@H](O)[C@@]1(C)F`, the Activity in the assay on Zika virus [1] is given as less than 10%.
Same read-out and setting: under `Cc1cccnc1C#Cc1cn([C@@H]2O[C@H](CO)[C@@H](O)[C@@]2(C)F)c2ncnc(C)c12` stands less than 10%.
Take `Cc1ncnc2c1c(C#Cc1ccc(Br)cc1)cn2[C@@H]1O[C@H](CO)[C@@H](O)[C@@]1(C)F`: the cytotoxic concentration (CC50) in the assay on A549 is more than 50 µM. The compound further gave an Activity in the assay on Zika virus [1] of more than 90%. In addition, in the assay on Zika virus [2], the half-maximal effective concentration (EC50) came out at 4.4 µM and the concentration for an effect of 90% (EC90) was found to be 14.7 µM.
For `C#Cc1cn([C@@H]2O[C@H](CO)[C@@H](O)[C@@]2(C)F)c2ncnc(C)c12`, the Activity with Zika virus [1] is recorded as less than 10%.
Take `COCc1ccccc1C#Cc1cn([C@@H]2O[C@H](CO)[C@@H](O)[C@@]2(C)F)c2ncnc(C)c12`: the cytotoxic concentration (CC50) in the assay with A549 is more than 50 µM. Moreover, the Activity in the assay with Zika virus [1] is reported as more than 90%. For the same compound, in the assay on Zika virus [2], the 50% effective concentration (EC50) amounted to 13.5 µM and the 90% effect concentration (EC90) was more than 50 µM.
`Cc1ccsc1C#Cc1cn([C@@H]2O[C@H](CO)[C@@H](O)[C@@]2(C)F)c2ncnc(C)c12` gave an Activity with Zika virus [1] of 40.2%.
For the compound `Cc1ncnc2c1c(C#Cc1cccc(Br)c1)cn2[C@@H]1O[C@H](CO)[C@@H](O)[C@@]1(C)F`, the CC50 with A549 is more than 50 µM. The same compound gave an Activity in the assay with Zika virus [1] of more than 90%. Further, in the assay on Zika virus [2], the concentration giving a half-maximal response (EC50) was found to be 4.5 µM and the EC90 is 15.4 µM.
`Cc1ncnc2c1c(C#Cc1ccccc1C(F)(F)F)cn2[C@@H]1O[C@H](CO)[C@@H](O)[C@@]1(C)F` returned an Activity in the assay on Zika virus [1] of 34.4%.
`Cc1ncnc2c1c(-c1ccc(-c3ccccc3)cc1)cn2[C@@H]1O[C@H](CO)[C@@H](O)[C@@]1(C)F` showed an Activity with Zika virus [1] of 29.9%.
For the compound `Cc1ncnc2c1c(C#Cc1ccc(F)cc1)cn2[C@@H]1O[C@H](CO)[C@@H](O)[C@@]1(C)F`, the Activity in the assay with Zika virus [1] was determined as 37.5%.
On to `Cc1ncnc2c1c(C#Cc1ccccc1F)cn2[C@@H]1O[C@H](CO)[C@@H](O)[C@@]1(C)F`, for which the half-maximal cytotoxic concentration (CC50) with A549 is more than 50 µM. The compound further gave an Activity with Zika virus [1] of more than 90%. Moreover, in the assay with Zika virus [2], the concentration for a half-maximal effect (EC50) stood at 4.9 µM and the EC90 worked out at 19.7 µM.
In the assay on Zika virus [1], `COc1cccc(C#Cc2cn([C@@H]3O[C@H](CO)[C@@H](O)[C@@]3(C)F)c3ncnc(C)c23)n1` displayed an Activity of less than 10%.
For `COc1ccc(C#Cc2cn([C@@H]3O[C@H](CO)[C@@H](O)[C@@]3(C)F)c3ncnc(C)c23)cc1`, the half-maximal cytotoxic concentration (CC50) with A549 was more than 50 µM. The compound also showed an Activity in the assay with Zika virus [1] of more than 90%. Besides, in the assay on Zika virus [2], the EC50 stood at 11.8 µM and the EC90 was 40.7 µM.
As to `Cc1ccnc(C#Cc2cn([C@@H]3O[C@H](CO)[C@@H](O)[C@@]3(C)F)c3ncnc(C)c23)c1`, the Activity with Zika virus [1] is less than 10%.
Still for that read-out and setting: under `CC#Cc1cn([C@@H]2O[C@H](CO)[C@@H](O)[C@@]2(C)F)c2ncnc(C)c12` stands less than 10%.
Take `Cc1ccc(C#Cc2cn([C@@H]3O[C@H](CO)[C@@H](O)[C@@]3(C)F)c3ncnc(C)c23)cc1`: the CC50 in the assay with A549 was more than 50 µM. In the assay with Zika virus [1], this compound gave an Activity of more than 90%. In addition, in the assay with Zika virus [2], the EC50 is 11.8 µM and the EC90 was 24.2 µM.
`C#C[C@@]1(O)[C@H](O)[C@@H](CO)O[C@H]1n1ccc2c(N)ncnc21`: the CC50 in the assay with A549 was more than 50 µM. Further, the equilibrium dissociation constant (Kd) on NS5 is 3.43 µM. In the assay with Zika virus [2], the concentration for a half-maximal effect (EC50) worked out at 14 µM and the 90% effect concentration (EC90) turned out to be 30.9 µM.
For the compound `Cc1ncnc2c1c(C#Cc1ccccc1)cn2[C@@H]1O[C@H](CO)[C@@H](O)[C@@]1(C)F`, the CC50 with A549 was more than 50 µM. Also, in the assay on Zika virus [2], the EC50 came out at 13.8 µM and the EC90 turned out to be 33.6 µM.
Turning to `Cc1ccccc1C#Cc1cn([C@@H]2O[C@H](CO)[C@@H](O)[C@@]2(C)F)c2ncnc(C)c12`, the half-maximal cytotoxic concentration (CC50) in the assay with A549 is more than 50 µM. In addition, the Activity in the assay on Zika virus [1] is more than 90%. For the same compound, in the assay with Zika virus [2], the EC50 came out at 8.5 µM and the EC90 came out at 25.7 µM.
In the same order, the values of `CCOC(=O)c1ccc(C#Cc2cn([C@@H]3O[C@H](CO)[C@@H](O)[C@@]3(C)F)c3ncnc(C)c23)s1` are more than 50 µM, more than 90%, 39.8 µM and more than 50 µM.
